# Reference: US4229204A, “Trifluoromethylphenyl isoxazolyl benzoates” (Monsanto Company, priority 1978, dated 1980)
# Tests used:
# Format in all cases: in vivo
# [1] = tested on: mixture of Kentucky Bluegrass, Creeping Red Fescue and Chewings Fescue; assay: Growth regulation of lawn grasses (Table VIII)
# Procedure: The compound of Example Number 3 was tested on various lawn grasses as follows. A mixture of Kentucky Bluegrass, Creeping Red Fescue and Chewings Fescue were planted in a good grade of top soil in plastic pots. Seven to ten days after germination, the plants were treated with the active ingredient to which a surfactant had been added by spraying the plants until they were wet with various concentrations.
# Quackgrass = assay: Pre-emergent herbicidal test; details: 2 WAT, 11.2 kg/h; also: ranges in brackets are in %
# Summary of the method: (§1)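 Seeds or vegetative propagules pressed into top soil in pans, then covered with a soil layer premixed with a known amount of active ingredient applied in solvent or as wettable powder. Herbicidal rating from a fixed scale of percent injury per species.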
# Cocklebur = assay: Pre-emergent herbicidal test; also: ranges in brackets are in %
# Summary of the method: as §1
# Velvetleaf = assay: Pre-emergent herbicidal test; also: ranges in brackets are in %
# Summary of the method: as §1
# Johnsongrass = assay: Pre-emergent herbicidal test; details: 2 WAT, 11.2 kg/h; also: ranges in brackets are in %
# Summary of the method: as §1
# grain sorghum = assay: Growth regulation of grain sorghum (Table IX); details: 250 ppm
# Source text: The compound of Example Number 3 was also applied to four-week old grain sorghum at a rate of 250 ppm.
# Bluebell rice = assay: Growth regulation of rice; details: four-week old rice, 250 ppm, both at 3 weeks and 7 weeks after treatment
# Source text: The compound of Example Number 3 was applied to four-week old Bluebell rice at a rate of 250 ppm.
# Wheat = assay: Pre-emergent herbicidal test; details: 4 WAT; also: ranges in brackets are in %
# Procedure: (§2) The pre-emergent test was conducted as follows:
# (§3) A good grade of top soil was placed in aluminum pans and compacted to a depth of three-eighths to one-half inch from the top of the pan. On the top of the soil was placed a predetermined number of seeds or vegetative propagules of various plant species which were pressed into the soil surface. The soil required to level fill the pans after seeding or adding vegetative propagules was weighed into a pan. A known amount of the active ingredient applied in a solvent or as a wettable powder and the soil were thoroughly mixed, and used as a cover layer for prepared pans.
# (§4) The herbicidal rating was obtained by means of a fixed scale based on the percent injury of each plant species. The ratings are defined as follows: […]
# Panicum Spp. = assay: Pre-emergent herbicidal test; details: 4 WAT; also: ranges in brackets are in %
# Procedure: as §2, §3, §4
# Sugarbeet = assay: Pre-emergent herbicidal test; details: 4 WAT; also: ranges in brackets are in %
# Procedure: as §2, §3, §4
# Wild Buckwheat = assay: Pre-emergent herbicidal test; details: 4 WAT; also: ranges in brackets are in %
# Procedure: as §2, §3, §4
# Crabgrass = assay: Pre-emergent herbicidal test; details: 4 WAT; also: ranges in brackets are in %
# Procedure: as §2, §3, §4
# Soybean = assay: Pre-emergent herbicidal test; details: 4 WAT; also: ranges in brackets are in %
# Procedure: as §2, §3, §4
# Rice = assay: Pre-emergent herbicidal test; details: 4 WAT; also: ranges in brackets are in %
# Procedure: as §2, §3, §4
# Sorghum = assay: Pre-emergent herbicidal test; details: 4 WAT; also: ranges in brackets are in %
# Procedure: as §2, §3, §4
# Hemp Sesbania = assay: Pre-emergent herbicidal test; details: 4 WAT; also: ranges in brackets are in %
# Procedure: as §2, §3, §4
structure (smiles),measurement,setting,value
"COC(=O)c1ccccc1-c1cc(-c2cccc(C(F)(F)F)c2)no1 [Example 3, Methyl 2-[3-[3-(Trifluoromethyl)-Phenyl]-5-Isoxazolyl]Benzoate]",Height,"[1]; 10 ppm, 3 weeks after treatment",102 % of Control
same,Height,"[1]; 10 ppm, 9 weeks after treatment",93 % of Control
same,Height,"[1]; 50 ppm, 3 weeks after treatment",94 % of Control
same,Height,"[1]; 50 ppm, 9 weeks after treatment",86 % of Control
same,Height,"[1]; 250 ppm, 3 weeks after treatment",66 % of Control
same,Height,"[1]; 250 ppm, 9 weeks after treatment",57 % of Control
same,herbicidal rating,Quackgrass,3 (75-100)
same,herbicidal rating,"Cocklebur; 2 WAT, 11.2 kg/h",2 (50-74)
same,herbicidal rating,"Cocklebur; 4 WAT, 1.12 kg/h",1 (25-49)
same,herbicidal rating,"Cocklebur; 4 WAT, 5.60 kg/h",2 (50-74)
same,herbicidal rating,"Velvetleaf; 2 WAT, 11.2 kg/h",2 (50-74)
same,herbicidal rating,"Velvetleaf; 4 WAT, 1.12 kg/h",1 (25-49)
same,herbicidal rating,"Velvetleaf; 4 WAT, 5.60 kg/h",2 (50-74)
same,herbicidal rating,Johnsongrass,2 (50-74)
same,Plant Height,grain sorghum; 3 weeks after treatment,91 % of Control
same,Other Observations,grain sorghum; 7 weeks after treatment,Necrosis.
same,Plant Height,grain sorghum; 7 weeks after treatment,81 % of Control
same,Observations compared with the control,Bluebell rice,stature reduction and tillering
same,herbicidal rating,Wheat; 1.12 kg/h,1 (25-49)
same,herbicidal rating,Wheat; 5.60 kg/h,2 (50-74)
same,herbicidal rating,Panicum Spp.; 1.12 kg/h,2 (50-74)
same,herbicidal rating,Panicum Spp.; 5.60 kg/h,3 (75-100)
same,herbicidal rating,Sugarbeet; 1.12 kg/h,2 (50-74)
same,herbicidal rating,Sugarbeet; 5.60 kg/h,3 (75-100)
same,herbicidal rating,Wild Buckwheat; 1.12 kg/h,2 (50-74)
same,herbicidal rating,Wild Buckwheat; 5.60 kg/h,3 (75-100)
same,herbicidal rating,Crabgrass; 1.12 kg/h,2 (50-74)
same,herbicidal rating,Crabgrass; 5.60 kg/h,2 (50-74)
same,herbicidal rating,Soybean; 1.12 kg/h,2 (50-74)
same,herbicidal rating,Soybean; 5.60 kg/h,3 (75-100)
same,herbicidal rating,Rice; 1.12 kg/h,3 (75-100)
same,herbicidal rating,Rice; 5.60 kg/h,3 (75-100)
same,herbicidal rating,Sorghum; 1.12 kg/h,2 (50-74)
same,herbicidal rating,Sorghum; 5.60 kg/h,3 (75-100)
same,herbicidal rating,Hemp Sesbania; 1.12 kg/h,3 (75-100)
same,herbicidal rating,Hemp Sesbania; 5.60 kg/h,3 (75-100)
